Here are results for 29 compounds from US10428083B2, “Heterocyclylmethyl-thienouracile as antagonists of the adenosine-A2B-receptor” (BAYER PHARMA AKTIENGESELLSCHAFT, priority 2015, dated 2019).

For the test, the target named is human adenosine A2b receptor (Homo sapiens (Human), UniProt P29275). As to the kind of experiment: Cellular in vitro reporter gene test for A2b receptor activity (CHO-K1, CRE-luciferase, NECA stimulation). Format: cell-based. The conditions noted are these: recombinant CHO-K1 cell line, CRE-luciferase reporter, antagonism of EC50 concentration of NECA; in some cases means of several determinations, rounded to two significant figures; read-out: A2b receptor IC50. In short, it runs like this:
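CHO-K1 cells with CRE-driven luciferase; antagonists co-incubated with NECA at its EC50, determined in a pre-experiment on each test day. Luciferase read by luminescence 3 h after NECA addition.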
In general terms: A reporter such as luciferase makes a cellular process visible.

Sequence of human adenosine A2b receptor (P29275 whole entry): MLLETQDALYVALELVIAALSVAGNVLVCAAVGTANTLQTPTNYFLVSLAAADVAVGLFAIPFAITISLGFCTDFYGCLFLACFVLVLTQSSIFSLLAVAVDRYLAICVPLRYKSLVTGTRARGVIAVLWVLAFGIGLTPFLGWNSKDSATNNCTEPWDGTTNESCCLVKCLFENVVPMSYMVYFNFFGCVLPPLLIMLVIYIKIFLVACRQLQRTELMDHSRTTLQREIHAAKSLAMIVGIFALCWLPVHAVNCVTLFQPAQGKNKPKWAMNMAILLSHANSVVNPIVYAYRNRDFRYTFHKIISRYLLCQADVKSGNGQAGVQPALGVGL

For the compound `CCn1c(=O)c2c(C)c(CN3CC[C@@H](O)C3=O)sc2n(CCC(F)(F)F)c1=O` [Example 126, 3-Ethyl-6-{[(3R)-3-hydroxy-2-oxopyrrolidin-1-yl]methyl}-5-methyl-1-(3,3,3-trifluoropropyl)thieno[2,3-d]pyrimidine-2,4(1H,3H)-dione], the IC50 came to 0.0039 µM.

Turning to `CCOCCn1c(=O)n(CC(C)C)c(=O)c2c(C)c(CN3CCNC3=S)sc21` [Example 145, 1-(2-Ethoxyetyl)-3-isobutyl-5-methyl-6-[(2-thioxoimidazolidin-1-yl)methyl]thieno[2,3-d]pyrimidine-2,4(1H,3H)-dione], the IC50 is 0.014 µM.

For the compound `Cc1c(CN2CCNC2=S)sc2c1c(=O)n(CC(F)(F)F)c(=O)n2CC1CCCO1` (single isomer, unassigned) [Example 299, 5-Methyl-1-(tetrahydrofuran-2-ylmethyl)-6-[(2-thioxoimidazolidin-1-yl)methyl]-3-(2,2,2-trifluoroethyl)thieno[2,3-d]pyrimidine-2,4(1H,3H)-dione], the IC50 came to 0.0056 µM.

`CCn1c(=O)c2c(C)c(CN3CCCCC3=O)sc2n(CCC(F)(F)F)c1=O` [Example 12, 3-Ethyl-5-methyl-6-[(2-oxopiperidin-1-yl)methyl]-1-(3,3,3-trifluoropropyl)thieno[2,3-d]pyrimidine-2,4(1H,3H)-dione]: the IC50 came out at 0.012 µM.

On to `Cc1c(CN2CCNC(=O)C2=O)sc2c1c(=O)n(C(C)C)c(=O)n2CC1CCCO1` (single isomer, unassigned) [Example 481, 6-[(2,3-Dioxopiperazin-1-yl)methyl]-3-isopropyl-5-methyl-1-(tetrahydrofuran-2-ylmethyl)thieno[2,3-d]pyrimidine-2,4(1H,3H)-dione], for which the IC50 was 0.14 µM.

Consider `CCn1c(=O)c2c(C)c(CN3CCNC3=NC(=O)OC)sc2n(CC2CCO2)c1=O` (racemic) [Example 371, Methyl [1-{[3-ethyl-5-methyl-1-(oxetan-2-ylmethyl)-2,4-dioxo-1,2,3,4-tetrahydrothieno[2,3-d]pyrimidin-6-yl]methyl}imidazolidin-2-ylidene]carbamate], for which the IC50 was 0.0098 µM.

For the compound `CCn1c(=O)c2c(C)c(CN3CCCN(C)C3=O)sc2n(CCC(F)(F)F)c1=O` [Example 108, 3-Ethyl-5-methyl-6-[(3-methyl-2-oxotetrahydropyrimidin-1(2H)-yl)methyl]-1-(3,3,3-trifluoropropyl)thieno[2,3-d]pyrimidine-2,4(1H,3H)-dione], the IC50 was determined as 0.0033 µM.

For the compound `Cc1c(CN2CCN(C)C2=S)sc2c1c(=O)n(CC(F)(F)F)c(=O)n2CCCF` [Example 173, 1-(3-Fluoropropyl)-5-methyl-6-[(3-methyl-2-thioxoimidazolidin-1-yl)methyl]-3-(2,2,2-trifluoroethyl)thieno[2,3-d]pyrimidine-2,4(1H,3H)-dione], the IC50 was 0.073 µM.

For the compound `Cc1c(CN2CCNC(=O)C2=O)sc2c1c(=O)n(CC(F)(F)F)c(=O)n2CC1CCCO1` (single isomer, unassigned) [Example 488, 6-[(2,3-Dioxopiperazin-1-yl)methyl]-5-methyl-1-(tetrahydrofuran-2-ylmethyl)-3-(2,2,2-trifluoroethyl)thieno[2,3-d]pyrimidine-2,4(1H,3H)-dione], the IC50 was determined as 0.068 µM.

Turning to `Cc1c(CN2CCNC2=O)sc2c1c(=O)n(C(C)C)c(=O)n2CF` [Example 313, 1-(Fluoromethyl)-3-isopropyl-5-methyl-6-[(2-oxoimidazolidin-1-yl)methyl]thieno[2,3-d]pyrimidine-2,4(1H,3H)-dione], the IC50 turned out to be 0.041 µM.

`Cc1c(CN2CCNC2=O)sc2c1c(=O)n(C(C)C)c(=O)n2CCF` [Example 182, 1-(2-Fluoroethyl)-3-isopropyl-5-methyl-6-[(2-oxoimidazolidin-1-yl)methyl]thieno[2,3-d]pyrimidine-2,4(1H,3H)-dione]: the IC50 came to 0.009 µM.

In the case of `COCCn1c(=O)n(CC2CCCO2)c(=O)c2c(C)c(CN3CCNC3=O)sc21` (single isomer, unassigned) [Example 333, 1-(2-Methoxyethyl)-5-methyl-6-[(2-oxoimidazolidin-1-yl)methyl]-3-(tetrahydrofuran-2-ylmethyl)thieno[2,3-d]pyrimidine-2,4(1H,3H)-dione], the IC50 was found to be 0.11 µM.

As to `CCOCCn1c(=O)n(CC(F)F)c(=O)c2c(C)c(CN3CCNC3=O)sc21` [Example 215, 3-(2,2-Difluoroethyl)-1-(2-ethoxyethyl)-5-methyl-6-[(2-oxoimidazolidin-1-yl)methyl]thieno[2,3-d]pyrimidine-2,4(1H,3H)-dione], the IC50 amounted to 0.045 µM.

`Cc1c(CN2CCNC2=O)sc2c1c(=O)n(C(C)C)c(=O)n2CCCF` [Example 314, 1-(3-Fluoropropyl)-3-isopropyl-5-methyl-6-[(2-oxoimidazolidin-1-yl)methyl]thieno[2,3-d]pyrimidine-2,4(1H,3H)-dione]: the IC50 turned out to be 0.0047 µM.

In the case of `COCCn1c(=O)c2c(C)c(Cn3[nH]ccc3=O)sc2n(CC2CCCO2)c1=O` (racemic) [Example 289, 3-(2-Methoxyethyl)-5-methyl-6-[(5-oxo-2,5-dihydro-1H-pyrazol-1-yl)methyl]-1-(tetrahydrofuran-2-ylmethyl)thieno[2,3-d]pyrimidine-2,4(1H,3H)-dione], the IC50 turned out to be 0.18 µM.

For `COCCn1c(=O)n(C(C)C(F)(F)F)c(=O)c2c(C)c(CN3CCNC3=NC(=O)OC)sc21` (single isomer, unassigned) [Example 515, Methyl [1-{[1-(2-methoxyethyl)-5-methyl-2,4-dioxo-3-(1,1,1-trifluoropropan-2-yl)-1,2,3,4-tetrahydrothieno[2,3-d]pyrimidin-6-yl]methyl}imidazolidin-2-ylidene]carbamate], the IC50 was 0.024 µM.

In the case of `COC(C)Cn1c(=O)c2c(C)c(CN3CCNC(=O)C3=O)sc2n(CCC(F)(F)F)c1=O` (racemic) [Example 493, 6-[(2,3-Dioxopiperazin-1-yl)methyl]-3-(2-methoxypropyl)-5-methyl-1-(3,3,3-trifluoropropyl)thieno[2,3-d]pyrimidine-2,4(1H,3H)-dione], the IC50 is 0.011 µM.

As for `C=CCn1cnn(Cc2sc3c(c2C)c(=O)n(CC)c(=O)n3CF)c1=O` [Example 349, 6-[(4-Allyl-5-oxo-4,5-dihydro-1H-1,2,4-triazol-1-yl)methyl]-3-ethyl-1-(fluoromethyl)-5-methylthieno[2,3-d]pyrimidine-2,4(1H,3H)-dione], the IC50 was determined as 0.63 µM.

In the case of `Cc1c(CN2CCNC2=S)sc2c1c(=O)n(CC(F)(F)F)c(=O)n2CC1CCO1` (single isomer, unassigned) [Example 156, 5-Methyl-1-(oxetan-2-ylmethyl)-6-[(2-thioxoimidazolidin-1-yl)methyl]-3-(2,2,2-trifluoroethyl)thieno[2,3-d]pyrimidine-2,4(1H,3H)-dione], the IC50 is 0.0057 µM.

As for `CCn1c(=O)c2c(C)c(CN3CCNC3=O)sc2n(CC2CCC2)c1=O` [Example 80, 1-(Cyclobutylmethyl)-3-ethyl-5-methyl-6-[(2-oxoimidazolidin-1-yl)methyl]thieno[2,3-d]pyrimidine-2,4(1H,3H)-dione], the IC50 was 0.0014 µM.

Turning to `[2H]C([2H])(c1sc2c(c1C)c(=O)n(CC)c(=O)n2CCOC)N1CCNC1=O` [Example 415, 3-Ethyl-1-(2-methoxyethyl)-5-methyl-6-[(2-oxoimidazolidin-1-yl)(dideutero)methyl]thieno[2,3-d]pyrimidine-2,4(1H,3H)-dione], the IC50 stood at 0.009 µM.

As for `CCn1c(=O)c2c(C)c(CN3CCNC3=S)sc2n(CCCF)c1=O` [Example 29, 3-Ethyl-1-(3-fluoropropyl)-5-methyl-6-[(2-thioxoimidazolidin-1-yl)methyl]thieno[2,3-d]pyrimidine-2,4(1H,3H)-dione], the IC50 came to 0.0041 µM.

Turning to `COCCn1c(=O)c2c(C)c(CN3CCNC3=NC#N)sc2n(CC2CCO2)c1=O` (racemic) [Example 364, [1-{[3-(2-Methoxyethyl)-5-methyl-1-(oxetan-2-ylmethyl)-2,4-dioxo-1,2,3,4-tetrahydrothieno[2,3-d]pyrimidin-6-yl]methyl}imidazolidin-2-ylidene]cyanamide], the IC50 turned out to be 0.17 µM.

As for `COCCn1c(=O)c2c(C)c(CN3CCNC3=O)sc2n(CCCF)c1=O` [Example 230, 1-(3-Fluoropropyl)-3-(2-methoxyethyl)-5-methyl-6-[(2-oxoimidazolidin-1-yl)methyl]thieno[2,3-d]pyrimidine-2,4(1H,3H)-dione], the IC50 was 0.012 µM.

For the compound `COCCn1c(=O)n(C(C)C(F)(F)F)c(=O)c2c(C)c(CN3CCNC3=NC(=O)OC)sc21` (racemic) [Example 471, Methyl [1-{[1-(2-methoxyethyl)-5-methyl-2,4-dioxo-3-(1,1,1-trifluoropropan-2-yl)-1,2,3,4-tetrahydrothieno[2,3-d]pyrimidin-6-yl]methyl}imidazolidin-2-ylidene]carbamate], the IC50 stood at 0.018 µM.

Take `CCn1c(=O)c2c(C)c(CN3CCNC(=O)C3=O)sc2n(CCOC2CCCC2)c1=O` [Example 395, 1-[2-(Cyclopentyloxy)ethyl]-6-[(2,3-dioxopiperazin-1-yl)methyl]-3-ethyl-5-methylthieno[2,3-d]pyrimidine-2,4(1H,3H)-dione]: the IC50 is 0.094 µM.

In the case of `Cc1c(CN2CCNC2=S)sc2c1c(=O)n(CC(F)(F)F)c(=O)n2CC1CCCO1` (racemic) [Example 157, 5-Methyl-1-(tetrahydrofuran-2-ylmethyl)-6-[(2-thioxoimidazolidin-1-yl)methyl]-3-(2,2,2-trifluoroethyl)thieno[2,3-d]pyrimidine-2,4(1H,3H)-dione], the IC50 was determined as 0.0057 µM.

Consider `COCCn1c(=O)n(CC(C)(C)O)c(=O)c2c(C)c(CN3CCNC3=O)sc21` [Example 228, 3-(2-Hydroxy-2-methylpropyl)-1-(2-methoxyethyl)-5-methyl-6-[(2-oxoimidazolidin-1-yl)methyl]thieno[2,3-d]pyrimidine-2,4(1H,3H)-dione], for which the IC50 came out at 0.13 µM.

As to `C#CCCn1c(=O)c2c(C)c(CN3CCNC3=O)sc2n(CCOC)c1=O` [Example 318, 3-(But-3-yn-1-yl)-1-(2-methoxyethyl)-5-methyl-6-[(2-oxoimidazolidin-1-yl)methyl]thieno[2,3-d]pyrimidine-2,4(1H,3H)-dione], the IC50 was 0.0014 µM.

A word on the IC50: it is the point on the concentration scale where inhibition reaches its midpoint.
